Assay results: ChEMBL document CHEMBL3885881, “DrugMatrix”

Species: Rattus norvegicus
Assay: DrugMatrix - Regimen: Daily Repeat
Assay type: toxicity, organism-based, Sprague-Dawley
Design: regimen Daily Repeat, gender Male, age 6-8 weeks
Settings: in vivo, po, 1500 mg/kg, route oral GAVAGE, dose level High, vehicle .5 % CMC; for ABSOLUTE BASOPHIL / ABSOLUTE EOSINOPHIL / ABSOLUTE LYMPHOCYTE / ABSOLUTE MONOCYTE / ABSOLUTE SEGMENTED NEUTROPHIL / BASOPHIL / EOSINOPHIL / ERYTHROCYTE COUNT / HEMATOCRIT / HEMOGLOBIN / LEUKOCYTE COUNT / LYMPHOCYTE / MEAN CORPUSCULAR HEMOGLOBIN / MEAN CORPUSCULAR HEMOGLOBIN CONCENTRATION / MEAN CORPUSCULAR VOLUME / MONOCYTE / NEUTROPHIL / NUCLEATED RED BLOOD CELLS / PLATELET COUNT: tissue Blood; for ALANINE AMINOTRANSFERASE / ALBUMIN / ALKALINE PHOSPHATASE / ASPARTATE AMINOTRANSFERASE / BLOOD UREA NITROGEN / CARBON DIOXIDE / CHLORIDE / CHOLESTEROL / CREATINE PHOSPHOKINASE / CREATININE / GLUCOSE / LACTATE DEHYDROGENASE / LIPASE / PHOSPHORUS / POTASSIUM / SODIUM / TOTAL BILIRUBIN / TOTAL PROTEIN / URIC ACID: tissue Plasma

SMILES: O=C(N[C@H](CO)[C@H](O)c1ccc([N+](=O)[O-])cc1)C(Cl)Cl [CHLORAMPHENICOL]
- ABSOLUTE BASOPHIL (72 h, time 3 day): 0 CELLS/uL
- ABSOLUTE EOSINOPHIL (72 h, time 3 day): 0 CELLS/uL
- ABSOLUTE LYMPHOCYTE (72 h, time 3 day): 14694 CELLS/uL
- ABSOLUTE MONOCYTE (72 h, time 3 day): 312.67 CELLS/uL
- ABSOLUTE SEGMENTED NEUTROPHIL (72 h, time 3 day): 793.33 CELLS/uL
- BASOPHIL (72 h, time 3 day): 0%
- EOSINOPHIL (72 h, time 3 day): 0%
- ERYTHROCYTE COUNT (72 h, time 3 day): 5.41 x10E6/uL
- HEMATOCRIT (72 h, time 3 day): 34.37%
- HEMOGLOBIN (72 h, time 3 day): 13.67 G/DL
- LEUKOCYTE COUNT (72 h, time 3 day): 15.8 x10E3/uL
- LYMPHOCYTE (72 h, time 3 day): 93%
- MEAN CORPUSCULAR HEMOGLOBIN (72 h, time 3 day): 25.33 pg
- MEAN CORPUSCULAR HEMOGLOBIN CONCENTRATION (72 h, time 3 day): 39.83 G/DL
- MEAN CORPUSCULAR VOLUME (72 h, time 3 day): 63.63 fL
- MONOCYTE (72 h, time 3 day): 2%
- NEUTROPHIL (72 h, time 3 day): 5%
- NUCLEATED RED BLOOD CELLS (72 h, time 3 day): 0 /100WBC
- PLATELET COUNT (72 h, time 3 day): 1264 x10E3/uL
- ALANINE AMINOTRANSFERASE (72 h, time 3 day): 78 u/L
- ALBUMIN (72 h, time 3 day): 4.33 G/DL
- ALKALINE PHOSPHATASE (72 h, time 3 day): 347 u/L
- ASPARTATE AMINOTRANSFERASE (72 h, time 3 day): 90.33 u/L
- BLOOD UREA NITROGEN (72 h, time 3 day): 15.67 mg/dL
- CARBON DIOXIDE (72 h, time 3 day): 37.67 mmol/L
- CHLORIDE (72 h, time 3 day): 101.33 MEQ/L
- CHOLESTEROL (72 h, time 3 day): 63 mg/dL
- CREATINE PHOSPHOKINASE (72 h, time 3 day): 530 u/L
- CREATININE (72 h, time 3 day): 0.15 mg/dL
- GLUCOSE (72 h, time 3 day): 150 mg/dL
- LACTATE DEHYDROGENASE (72 h, time 3 day): 92.67 u/L
- LIPASE (72 h, time 3 day): 9.33 u/L
- PHOSPHORUS (72 h, time 3 day): 10.53 mg/dL
- POTASSIUM (72 h, time 3 day): 6.53 MEQ/L
- SODIUM (72 h, time 3 day): 143.67 MEQ/L
- TOTAL BILIRUBIN (72 h, time 3 day): 0.13 mg/dL
- TOTAL PROTEIN (72 h, time 3 day): 5.6 G/DL
- URIC ACID (72 h, time 3 day): 1.4 mg/dL
- ABSOLUTE BASOPHIL (120 h, time 5 day): 0 CELLS/uL
- ABSOLUTE EOSINOPHIL (120 h, time 5 day): 0 CELLS/uL
- ABSOLUTE LYMPHOCYTE (120 h, time 5 day): 13927 CELLS/uL
- ABSOLUTE MONOCYTE (120 h, time 5 day): 280 CELLS/uL
- ABSOLUTE SEGMENTED NEUTROPHIL (120 h, time 5 day): 1126.33 CELLS/uL
- BASOPHIL (120 h, time 5 day): 0%
- EOSINOPHIL (120 h, time 5 day): 0%
- ERYTHROCYTE COUNT (120 h, time 5 day): 5.7 x10E6/uL
- HEMATOCRIT (120 h, time 5 day): 35.27%
- HEMOGLOBIN (120 h, time 5 day): 14.27 G/DL
- LEUKOCYTE COUNT (120 h, time 5 day): 15.33 x10E3/uL
- LYMPHOCYTE (120 h, time 5 day): 90.67%
- MEAN CORPUSCULAR HEMOGLOBIN (120 h, time 5 day): 25.07 pg
- MEAN CORPUSCULAR HEMOGLOBIN CONCENTRATION (120 h, time 5 day): 40.5 G/DL
- MEAN CORPUSCULAR VOLUME (120 h, time 5 day): 61.9 fL
- MONOCYTE (120 h, time 5 day): 2%
- NEUTROPHIL (120 h, time 5 day): 7.33%
- NUCLEATED RED BLOOD CELLS (120 h, time 5 day): 0.33 /100WBC
- PLATELET COUNT (120 h, time 5 day): 1090 x10E3/uL
- ALANINE AMINOTRANSFERASE (120 h, time 5 day): 63 u/L
- ALBUMIN (120 h, time 5 day): 4.13 G/DL
- ALKALINE PHOSPHATASE (120 h, time 5 day): 266.33 u/L
- ASPARTATE AMINOTRANSFERASE (120 h, time 5 day): 100.33 u/L
- BLOOD UREA NITROGEN (120 h, time 5 day): 22.33 mg/dL
- CARBON DIOXIDE (120 h, time 5 day): 35 mmol/L
- CHLORIDE (120 h, time 5 day): 103 MEQ/L
- CHOLESTEROL (120 h, time 5 day): 56 mg/dL
- CREATINE PHOSPHOKINASE (120 h, time 5 day): 359.67 u/L
- CREATININE (120 h, time 5 day): 0.2 mg/dL
- GLUCOSE (120 h, time 5 day): 144 mg/dL
- LACTATE DEHYDROGENASE (120 h, time 5 day): 180 u/L
- LIPASE (120 h, time 5 day): 8.67 u/L
- PHOSPHORUS (120 h, time 5 day): 9.33 mg/dL
- POTASSIUM (120 h, time 5 day): 9.76 MEQ/L
- SODIUM (120 h, time 5 day): 143.67 MEQ/L
- TOTAL BILIRUBIN (120 h, time 5 day): 0.17 mg/dL
- TOTAL PROTEIN (120 h, time 5 day): 5.23 G/DL
- URIC ACID (120 h, time 5 day): 1.3 mg/dL
